# In ChEMBL document CHEMBL3885861, “Open TG-GATES”:
# Organism: Rattus norvegicus
# Experiment: Open TG-GATES - Regimen: Daily Repeat
# Format: toxicity, organism-based, Sprague-Dawley
# Parameters: regimen Daily Repeat, gender Male, age 6 weeks
# Settings: in vivo, po, 0 mg/kg, route gavage, dose level Control; for APTT / Bas / Eos / Fbg / Hb / Ht / Lym / MCH / MCHC / MCV / Mono / Neu / PT / Plat / RBC / Ret / WBC: tissue Blood
# [1] = 72 h, tissue Kidney, time 3 day
# [2] = 72 h, tissue Plasma, time 3 day
smiles,measurement,setting,value
Cc1cccc(Nc2ccccc2C(=O)O)c1C [MEFENAMIC ACID],TERMINAL_BW,"72 h, time 3 day",233.8 g
same,APTT,"72 h, time 3 day",19.9 s
same,Bas,"72 h, time 3 day",0%
same,Eos,"72 h, time 3 day",0.8%
same,Fbg,"72 h, time 3 day",223.4 mg/dL
same,Hb,"72 h, time 3 day",13.4 g/dL
same,Ht,"72 h, time 3 day",38.3%
same,Lym,"72 h, time 3 day",76%
same,MCH,"72 h, time 3 day",21.9 pg
same,MCHC,"72 h, time 3 day",35.1%
same,MCV,"72 h, time 3 day",62.4 fL
same,Mono,"72 h, time 3 day",2.6%
same,Neu,"72 h, time 3 day",18.2%
same,PT,"72 h, time 3 day",11.9 s
same,Plat,"72 h, time 3 day",118.8 x10_4/uL
same,RBC,"72 h, time 3 day",614 x10_4/ul
same,Ret,"72 h, time 3 day",5.7%
same,WBC,"72 h, time 3 day",105.7 x10_2/uL
same,KIDNEY_L,[1],1 g
same,KIDNEY_R,[1],1 g
same,KIDNEY_TOTAL,[1],2 g
same,LIVER,"72 h, tissue Liver, time 3 day",11.2 g
same,A/G,[2],1.6
same,ALP,[2],1029.8 IU/L
same,ALT,[2],35.4 IU/L
same,AST,[2],64.2 IU/L
same,BUN,[2],14.4 mg/dL
same,CRE,[2],0.4 mg/dL
same,Ca,[2],11 mg/dL
same,Cl,[2],103.2 meq/L
same,DBIL,[2],0.088 mg/dL
same,GLC,[2],193.2 mg/dL
same,IP,[2],7.6 mg/dL
same,K,[2],4.2 meq/L
same,LDH,[2],173 IU/L
same,Na,[2],141 meq/L
same,PL,[2],143.6 mg/dL
same,RALB,[2],3.5 g/dL
same,TBIL,[2],0.1 mg/dL
same,TC,[2],70.6 mg/dL
same,TG,[2],87.4 mg/dL
same,TP,[2],5.6 g/dL
same,gamma-GTP,[2],1 IU/L
same,TERMINAL_BW,"[…], time 7 day",261.7 g
same,TERMINAL_BW,"[…], time 14 day",316.1 g
same,TERMINAL_BW,"[…], time 28 day",409.8 g
same,APTT,"[…], time 7 day",18.5 s
same,Bas,"[…], time 7 day",0%
same,Eos,"[…], time 7 day",0.8%
same,Fbg,"[…], time 7 day",219.2 mg/dL
same,Hb,"[…], time 7 day",13.8 g/dL
same,Ht,"[…], time 7 day",39.1%
same,Lym,"[…], time 7 day",81.4%
same,MCH,"[…], time 7 day",21.3 pg
same,MCHC,"[…], time 7 day",35.5%
same,MCV,"[…], time 7 day",60.1 fL
same,Mono,"[…], time 7 day",2.8%
same,Neu,"[…], time 7 day",13.4%
same,PT,"[…], time 7 day",11.7 s
same,Plat,"[…], time 7 day",121.6 x10_4/uL
same,RBC,"[…], time 7 day",650.6 x10_4/ul
same,Ret,"[…], time 7 day",4.7%
same,WBC,"[…], time 7 day",105 x10_2/uL
same,APTT,"[…], time 14 day",20.6 s
same,Bas,"[…], time 14 day",0%
same,Eos,"[…], time 14 day",1%
same,Fbg,"[…], time 14 day",228.8 mg/dL
same,Hb,"[…], time 14 day",14.3 g/dL
same,Ht,"[…], time 14 day",40.5%
same,Lym,"[…], time 14 day",76.4%
same,MCH,"[…], time 14 day",21.4 pg
same,MCHC,"[…], time 14 day",35.2%
same,MCV,"[…], time 14 day",60.8 fL
same,Mono,"[…], time 14 day",2.2%
same,Neu,"[…], time 14 day",18.6%
same,PT,"[…], time 14 day",12.1 s
same,Plat,"[…], time 14 day",108.8 x10_4/uL
same,RBC,"[…], time 14 day",667.4 x10_4/ul
same,Ret,"[…], time 14 day",4.2%
same,WBC,"[…], time 14 day",111.1 x10_2/uL
same,APTT,"[…], time 28 day",19.1 s
same,Bas,"[…], time 28 day",0%
same,Eos,"[…], time 28 day",1%
same,Fbg,"[…], time 28 day",249 mg/dL
same,Hb,"[…], time 28 day",15.3 g/dL
same,Ht,"[…], time 28 day",43.8%
